US20090227680A1, “Amino Acid Derivatives” (Pfizer, Inc., priority 2005, published 2009)
pIC50: −log10 of the molar value. Structures can show the parent of a compound that is named as a salt.

Biological target: T1, α2δ subunit derived from porcine brain tissue (Sus scrofa, UniProt A0A287BIN3)
T1 construct: the α2δ subunit derived from porcine brain tissue; from tissue; host or cells: porcine brain tissue
Experiment: radioligand binding assay using [3H]gabapentin and the α2δ subunit
Details: [3H]gabapentin binding
Description: The biological activity of the alpha-2-delta ligands of the invention may be measured in a radioligand binding assay using [^3H]gabapentin and the α2δ subunit derived from porcine brain tissue (Gee N. S., Brown J. P., Dissanayake V. U. K., Offord J., Thurlow R., Woodruff G. N., J. Biol. Chem., 1996; 271:5768-5776). Results may be expressed in terms of μM or nM α2δ binding affinity.

T1 sequence (A0A287BIN3 25-1109): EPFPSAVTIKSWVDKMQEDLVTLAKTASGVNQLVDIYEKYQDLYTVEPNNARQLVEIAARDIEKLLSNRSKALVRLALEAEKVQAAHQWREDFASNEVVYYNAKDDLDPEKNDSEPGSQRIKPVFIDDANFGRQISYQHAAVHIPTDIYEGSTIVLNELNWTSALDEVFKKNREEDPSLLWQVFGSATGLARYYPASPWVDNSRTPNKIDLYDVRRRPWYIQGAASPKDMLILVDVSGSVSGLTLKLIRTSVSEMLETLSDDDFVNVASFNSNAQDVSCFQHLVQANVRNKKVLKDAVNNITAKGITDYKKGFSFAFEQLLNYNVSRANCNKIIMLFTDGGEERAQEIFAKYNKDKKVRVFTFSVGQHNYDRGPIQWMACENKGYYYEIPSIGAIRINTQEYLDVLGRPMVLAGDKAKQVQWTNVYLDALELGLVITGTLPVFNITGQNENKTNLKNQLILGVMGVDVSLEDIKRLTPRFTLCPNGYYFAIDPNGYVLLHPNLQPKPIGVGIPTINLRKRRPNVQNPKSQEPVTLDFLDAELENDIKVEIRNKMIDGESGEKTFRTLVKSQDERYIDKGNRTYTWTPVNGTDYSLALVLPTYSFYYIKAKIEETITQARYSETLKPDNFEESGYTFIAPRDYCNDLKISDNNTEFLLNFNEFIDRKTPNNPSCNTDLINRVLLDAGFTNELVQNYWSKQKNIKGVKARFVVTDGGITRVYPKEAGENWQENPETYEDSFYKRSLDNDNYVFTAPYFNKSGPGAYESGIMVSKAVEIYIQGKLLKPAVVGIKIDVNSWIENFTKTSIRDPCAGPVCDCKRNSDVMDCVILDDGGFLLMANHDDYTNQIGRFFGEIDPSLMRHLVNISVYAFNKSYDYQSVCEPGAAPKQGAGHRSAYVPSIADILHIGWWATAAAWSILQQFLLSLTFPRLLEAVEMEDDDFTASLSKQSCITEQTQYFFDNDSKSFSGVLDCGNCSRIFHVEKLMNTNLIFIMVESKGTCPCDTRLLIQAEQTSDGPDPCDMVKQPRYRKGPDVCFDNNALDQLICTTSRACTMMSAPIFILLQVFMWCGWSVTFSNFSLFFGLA

| Structure (SMILES) | pIC50 |
| --- | --- |
| NC[C@H](Oc1ccccc1Cl)C(=O)O [Example 3] | 6.91 |
| NC[C@H](Oc1cccc(Cl)c1)C(=O)O [Example 2] | 7.04 |
| COc1ccc(Cl)cc1O[C@@H](CN)C(=O)O [Example 4] | 7.92 |
| CCCc1cccc(O[C@@H](CN)C(=O)O)c1 [Example 5, (2S)-3-Amino-2-(3-propylphenoxy)propanoic acid hydrochloride] | 6.94 |
| NC[C@H](Oc1cc(Cl)ccc1Cl)C(=O)O [Example 1, (2S)-3-Amino-2-(2,5-dichlorophenoxy)propanoic acid hydrochloride] | 8.05 |
